In assay [1] the test system is H9. Nature of the assay: Concentration which inhibited HIV-1 replication by 50% in acutely infected H9 cells. Type of assay: functional, cell-based. As to conditions: Homo sapiens.
Assay [2] relates to H9. Nature of the assay: Compound was tested for cytotoxic activity against acutely infected H9 cell growth. Type of assay: functional, cell-based. As to conditions: Homo sapiens.

In brackets after ≈: the same amount, converted by molar mass.

The EC50 is the concentration needed to bring the measured effect to its halfway point. The IC50 is the midpoint of a concentration-inhibition curve. A high value points to weaker potency. `COc1ccc(C[C@@H]2COC(=O)C2)cc1OC`: the response with H9 [1] was half-maximal at 34 µg/mL (≈ 144 µM) (EC50). In the assay on H9 [2], this molecule showed a concentration for half-maximal inhibition (IC50) of 100 µg/mL (≈ 423 µM).

`COc1ccc(C[C@@H]2COC(=O)[C@H]2Cc2ccccc2)cc1OC` came in with a concentration giving a half-maximal response (EC50) in the assay on H9 [1] of 2.2 µg/mL (≈ 6.74 µM). The same molecule showed an IC50 in the assay with H9 [2] of 20 µg/mL (≈ 61.3 µM).

In the case of `COc1ccc(C[C@@H]2COC(=O)[C@H]2Cc2ccc(O)cc2)cc1OC`, the response in the assay on H9 [1] was half-maximal at 0.25 µg/mL (≈ 0.73 µM) (EC50). Besides, the 50% inhibitory concentration (IC50) in the assay with H9 [2] is 0.8 µg/mL (≈ 2.34 µM).

As for `COc1cc(C[C@@H]2C(=O)OC[C@H]2Cc2ccc(OC)c(OC)c2)ccc1O`, the concentration for a half-maximal effect (EC50) in the assay on H9 [1] is 0.16 µg/mL (≈ 0.43 µM). In the assay on H9 [2], the IC50 was found to be 0.8 µg/mL (≈ 2.15 µM).

As to `COc1ccc(C[C@@H]2COC(=O)[C@H]2Cc2ccc(O)c(O)c2)cc1OC`, the 50% effective concentration (EC50) with H9 [1] came out at 1.5 µg/mL (≈ 4.19 µM). The IC50 in the assay with H9 [2] amounted to 6 µg/mL (≈ 16.7 µM).

With `COc1ccc(C[C@@H]2COC(=O)[C@H]2Cc2cccc(O)c2)cc1OC`, the response in the assay with H9 [1] was half-maximal at 1.8 µg/mL (≈ 5.26 µM) (EC50). This molecule yielded a half-maximal inhibitory concentration (IC50) in the assay with H9 [2] of 4 µg/mL (≈ 11.7 µM).

The values are drawn from ChEMBL document CHEMBL1151590, “Synthesis and anti-HIV activity of dibenzylbutyrolactone lignans” (Bioorg Med Chem Lett, 1996).
